Experimental data from publication PMC10816272, “Comparative Structure-Based Virtual Screening Utilizing Optimized AlphaFold Model Identifies Selective HDAC11 Inhibitor” (International Journal of Molecular Sciences, 2024).

Biological target: T1, HDAC11 (Homo sapiens, UniProt Q96DB2)
T1 construct: full-length human
T1 sequence (Q96DB2 1-347): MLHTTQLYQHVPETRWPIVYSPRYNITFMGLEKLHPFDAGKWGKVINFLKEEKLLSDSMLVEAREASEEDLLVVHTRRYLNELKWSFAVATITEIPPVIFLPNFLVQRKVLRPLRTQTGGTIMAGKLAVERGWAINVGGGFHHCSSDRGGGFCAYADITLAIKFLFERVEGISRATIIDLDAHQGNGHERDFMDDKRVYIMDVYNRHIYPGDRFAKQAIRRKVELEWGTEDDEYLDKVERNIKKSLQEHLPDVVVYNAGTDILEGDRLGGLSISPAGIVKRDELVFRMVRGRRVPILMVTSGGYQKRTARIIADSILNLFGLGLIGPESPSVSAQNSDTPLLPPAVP
Test: biochemical
Design: continuous fluorescence deacylase assay with fatty acid-acylated TNFα-derived peptide substrate
Protocol: In the case of HDAC11, the full-length human was expressed and purified as described in previous work. A fluorescence-based HDAC11 assay was used. The fluorescence measurements were performed using a PerkinElmer Envision 2104 multilabel plate reader (Waltham, MA, USA) at λex = 320 nm and λem = 430 nm. The reaction mixture consisted of HDAC11 and the fatty acid-acylated peptide substrate derived from TNFα in a reaction buffer—comprising 50 mM HEPES, 2 mg/mL BSA, and 70 µM TCEP—at pH 7.4, which was adjusted with NaOH (total volume 40 μL). The reactions were incubated in black 384-well plates for 30 min (scan every 30 s) at room temperature, and the increase in relative fluorescence reflecting the product formation was monitored. Positive (HDAC11, substrate, DMSO, and buffer) and negative controls (substrate, DMSO, and vuffer) were included in every measurement.

IC50: > 20 µM
SMILES: Nc1ccccc1NC(=O)c1ccc(CNC(=O)OCc2cccnc2)cc1 [Entinostat]
